Experimental findings from ChEMBL document CHEMBL3132753, “Synthesis and biological evaluation of 2-acetamidothiophene-3-carboxamide derivatives against Leishmania donovani” (Medchemcomm, 2014) are described below.

For series [1], the system named is Leishmania donovani. Put plainly: Antileishmanial activity against amastigote stage of Leishmania donovani MHOM/ET/67/HU3 infected in human THP1 cells assessed as parasite clearance after 3 days by Draq5 staining-based confocal microscopic analysis. The conditions noted are these: MHOM/ET/67/HU3, THP-1, 72 h. It counts as functional, organism-based.
Series [2] relates to Leishmania donovani. The experiment in a line: Antileishmanial activity against promastigote stage of Leishmania donovani MHOM/ET/67/HU3 assessed as parasite viability after 48 hrs by resazurin dye-based assay. The series is classed as functional, organism-based. The conditions noted are these: MHOM/ET/67/HU3, 48 h.
A short description of series [3]: Cytotoxicity against human THP1 cells. The series is classed as cell-based. Conditions: THP-1 cells.
Series [4] is described as follows: Selectivity index, ratio of CC50 for human THP1 cells to EC50 for amastigote stage of Leishmania donovani MHOM/ET/67/HU3. It counts as toxicity, cell-based. Conditions: THP-1 cells, read-out: Ratio CC50/EC50.

For the compound `COc1ccc(NC(=O)c2c(NC(=O)C(F)(F)F)sc3c2CCCCC3)cc1`, the EC50 in series [1] was 6.41 µM; in series [2] it was more than 50 µM. Further, the CC50 in series [3] was more than 50 µM. In addition, the selectivity ratio in series [4] was more than 7.8.
Take `Cc1ccc(NC(=O)c2c(NC(=O)C(F)(F)F)sc3c2CCCCC3)cc1`: the EC50 in series [1] was more than 50 µM. The CC50 in series [3] was more than 50 µM.
Turning to `CC(C)(C)OC(=O)c1c(N)sc2c1CCCCC2`, the EC50 in series [1] was more than 50 µM. Moreover, the CC50 in series [3] was more than 50 µM.
Regarding `COc1ccccc1NC(=O)c1c(NC(=O)C(F)(F)F)sc2c1CCCCC2`, the figures for the EC50 in series [1] and in series [2] were more than 50 µM and 42 µM, respectively. The CC50 in series [3] was more than 50 µM.
As for `O=C(Nc1ccc(Cl)cc1)c1c(NC(=O)C(F)(F)F)sc2c1CCCCC2`, in series [1], the EC50 was more than 50 µM. The CC50 in series [3] was more than 50 µM.
On to `O=C(Nc1ccc(C(F)(F)F)cc1)c1c(NC(=O)C(F)(F)F)sc2c1CCCCC2`, for which the results for the EC50 in series [1] and in series [2] were 17.6 µM and more than 50 µM, respectively. The compound further came in with a CC50 in series [3] of 17.2 µM. Also, the selectivity ratio in series [4] is 0.9.
The matching figures for `O=C(Nc1ccc(OC(F)(F)F)cc1)c1c(NC(=O)C(F)(F)F)sc2c1CCCCC2`: 9.85 µM, more than 50 µM, 11.9 µM and 1.2.
The matching figures for `N#Cc1ccc(NC(=O)c2c(NC(=O)C(F)(F)F)sc3c2CCCCC3)cc1`: 8.53 µM, more than 50 µM, 9.11 µM and 1.06.
`COc1ccc(CNC(=O)c2c(NC(=O)C(F)(F)F)sc3c2CCCCC3)cc1`: the EC50 in series [1] and in series [2] was more than 50 µM each time. The same compound had a CC50 in series [3] of more than 50 µM.
Turning to `CC(C)(C)NC(=O)c1c(NC(=O)C(F)(F)F)sc2c1CCCCC2`, the EC50 in series [1] was more than 50 µM. This compound also showed a CC50 in series [3] of more than 50 µM.
Consider `COc1ccc(NC(=O)c2c(NC(C)=O)sc3c2CCCCC3)cc1`, for which the EC50 in series [1] and in series [2] was more than 50 µM throughout. The half-maximal cytotoxic concentration (CC50) in series [3] was more than 50 µM.
Turning to `COC(=O)Nc1sc2c(c1C(=O)Nc1ccc(OC)cc1)CCCCC2`, in series [1], the EC50 is more than 50 µM. For the same compound, the CC50 in series [3] is more than 50 µM.
For the compound `COc1ccc(NC(=O)c2c(NC(=O)c3ccccc3)sc3c2CCCCC3)cc1`, the EC50 in series [1] was more than 50 µM. In series [3], the CC50 is more than 50 µM.
For `CC(=O)Nc1sc2c(c1C(=O)OC(C)(C)C)CCCCC2`, the EC50 in series [1] is more than 50 µM. The compound also registered a CC50 in series [3] of more than 50 µM.
As to `COc1ccc(NC(=O)c2c(NC(=O)C(F)(F)F)sc3c2CCCC3)cc1`, the EC50 was 14.6 µM in series [1] and more than 50 µM in series [2]. In addition, in series [3], the CC50 was more than 50 µM. Besides, the selectivity ratio in series [4] is more than 3.42.
`COc1ccc(NC(=O)c2c(NC(=O)C(F)(F)F)sc3c2CCC3)cc1`: in series [1], the EC50 was more than 50 µM. Further, the CC50 in series [3] is more than 50 µM.
`COc1ccc(NC(=O)c2c(NC(=O)C(F)(F)F)sc(C)c2C)cc1`: the half-maximal effective concentration (EC50) was 10.1 µM in series [1] and more than 50 µM in series [2]. Further, the CC50 in series [3] was more than 50 µM. For the same compound, the selectivity ratio in series [4] was more than 4.95.
Take `COc1ccc(NC(=O)c2ccsc2NC(=O)C(F)(F)F)cc1`: the EC50 in series [1] and in series [2] was more than 50 µM each time. Also, in series [3], the CC50 was more than 50 µM.
Take `COc1cccc(NC(=O)c2c(NC(=O)C(F)(F)F)sc3c2CCCCC3)c1`: the EC50 came out at 10.1 µM in series [1] and 21.5 µM in series [2]. This compound registered a CC50 in series [3] of 37.6 µM. Besides, the selectivity ratio in series [4] came out at 3.71.
Consider `C[C@@H]1[C@H](O)[C@@H](C)/C=C/C=C/C=C/C=C/C=C/C=C/C=C/[C@H](O[C@@H]2O[C@H](C)[C@@H](O)[C@H](N)[C@@H]2O)C[C@@H]2O[C@](O)(C[C@@H](O)C[C@@H](O)[C@H](O)CC[C@@H](O)C[C@@H](O)CC(=O)O[C@H]1C)C[C@H](O)[C@H]2C(=O)O` [AMPHOTERICIN B], for which the EC50 is 0.25 µM in series [1] and 0.18 µM in series [2]. The CC50 in series [3] was determined as 7.57 µM. Also, the selectivity ratio in series [4] worked out at 30.2.
The corresponding values for `CCCCCCCCCCCCCCCCOP(=O)([O-])OCC[N+](C)(C)C` [MILTEFOSINE] are 7.1 µM, 7.4 µM, 22.7 µM and 3.19.
